Measurements from ChEMBL document CHEMBL3045121, “Synthesis of an Antifungal Naphthoquinone Isolated fromRhinacanthus nasutus(Acanthaceae)” (1995).
Converted amounts (≈) assume the structure as drawn.

System: Pyricularia oryzae
Assay: Inhibition of spore germination of Magnaporthe oryzae
Format: functional
Conditions: read-out: ED50 (the source's name)

SMILES | EC50 [µg/mL]
C/C=C(\C)CC/C=C(\C)C(=O)OCC(C)(C)CC1=C(O)C(=O)c2ccccc2C1=O [RHINACANTHIN C] | 0.2 (≈ 0.487 µM)
CC1(C)COC2=C(C1)C(=O)C(=O)c1ccccc12 [RHINACANTHONE] | 0.4 (≈ 1.65 µM)
